Laboratory results published in ChEMBL document CHEMBL1131963, “Novel benzo-fused lactam scaffolds as factor Xa inhibitors” (Bioorg Med Chem Lett, 1999).

Legend:
Coagulation factor X [1] = biological target: T1, Coagulation factor X (Homo sapiens, UniProt P00742); test: In vitro inhibitory activity against human enzyme Coagulation factor X
Plasminogen = Plasminogen (Homo sapiens, UniProt P00747); test: In vitro inhibitory activity against human enzyme plasmin
Coagulation factor X [2] = biological target: T1, Coagulation factor X; test: In vitro inhibitory activity against human prothrombinase
Prothrombin [3] = biological target: T2, Prothrombin (Homo sapiens, UniProt P00734); test: In vitro inhibitory activity against human enzyme thrombin
[4] = Ratio against factor Xa to prothrombinase
Serine protease 1 [5] = biological target: T3, Serine protease 1 (Homo sapiens, UniProt P07477); test: In vitro evaluation of inhibition of cleavage of the chromogenic substrate by human enzyme trypsin
T3 sequence (P07477 whole entry): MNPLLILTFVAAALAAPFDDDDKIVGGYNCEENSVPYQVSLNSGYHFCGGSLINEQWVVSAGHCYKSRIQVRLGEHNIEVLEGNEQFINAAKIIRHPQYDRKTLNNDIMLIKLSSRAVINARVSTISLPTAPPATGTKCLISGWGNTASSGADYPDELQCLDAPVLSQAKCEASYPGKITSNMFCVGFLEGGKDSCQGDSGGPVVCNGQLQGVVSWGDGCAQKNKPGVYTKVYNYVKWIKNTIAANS

Coagulation factor X [6] = biological target: T1, Coagulation factor X; test: In vitro inhibitory activity against prothrombinase
Serine protease 1 [7] = biological target: T3, Serine protease 1; test: In vitro inhibitory activity against human enzyme trypsin
Prothrombin [8] = biological target: T2, Prothrombin; test: In vitro inhibitory activity against by human enzyme thrombin

Chain of Plasminogen (P00747 97-580 limits assumed): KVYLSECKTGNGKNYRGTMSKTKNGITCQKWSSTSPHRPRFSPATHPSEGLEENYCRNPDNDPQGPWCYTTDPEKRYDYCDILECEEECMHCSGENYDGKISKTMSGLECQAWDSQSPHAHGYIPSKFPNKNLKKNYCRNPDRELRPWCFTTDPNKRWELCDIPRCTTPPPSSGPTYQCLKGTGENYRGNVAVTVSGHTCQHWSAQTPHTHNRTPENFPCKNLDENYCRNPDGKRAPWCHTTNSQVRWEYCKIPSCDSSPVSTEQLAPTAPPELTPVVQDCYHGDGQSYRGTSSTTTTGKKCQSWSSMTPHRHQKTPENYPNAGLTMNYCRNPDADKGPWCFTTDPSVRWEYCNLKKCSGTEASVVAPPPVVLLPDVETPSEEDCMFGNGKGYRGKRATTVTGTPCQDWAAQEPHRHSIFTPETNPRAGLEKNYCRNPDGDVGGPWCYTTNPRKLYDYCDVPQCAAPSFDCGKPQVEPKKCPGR
Chain of Plasminogen (P00747 581-810 limits assumed): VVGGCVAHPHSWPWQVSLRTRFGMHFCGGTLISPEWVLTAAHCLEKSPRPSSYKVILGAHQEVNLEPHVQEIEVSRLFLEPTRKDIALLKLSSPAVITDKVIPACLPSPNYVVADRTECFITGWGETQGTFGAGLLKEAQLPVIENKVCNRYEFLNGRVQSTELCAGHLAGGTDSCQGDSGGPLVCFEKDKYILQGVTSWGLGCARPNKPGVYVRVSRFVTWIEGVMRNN
T1 sequence (P00742 41-179 limits assumed): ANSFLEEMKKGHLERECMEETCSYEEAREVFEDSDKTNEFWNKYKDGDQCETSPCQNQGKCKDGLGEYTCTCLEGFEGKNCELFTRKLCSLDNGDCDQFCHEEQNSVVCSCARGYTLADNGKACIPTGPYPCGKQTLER
T1 sequence (P00742 235-488 limits assumed): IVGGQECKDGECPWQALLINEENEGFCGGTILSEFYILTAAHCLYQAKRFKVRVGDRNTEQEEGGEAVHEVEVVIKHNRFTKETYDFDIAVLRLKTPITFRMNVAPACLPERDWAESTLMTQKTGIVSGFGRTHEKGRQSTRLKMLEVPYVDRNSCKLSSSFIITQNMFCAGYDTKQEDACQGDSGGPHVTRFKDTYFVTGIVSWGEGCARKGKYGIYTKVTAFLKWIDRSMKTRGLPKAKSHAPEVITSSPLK

| Compound | IC50 (Coagulation factor X [1]) | IC50 (Plasminogen) | IC50 (Coagulation factor X [2]) | IC50 (Prothrombin [3]) | Ratio [4] | IC50 (Serine protease 1 [5]) | IC50 (Coagulation factor X [6]) | IC50 (Serine protease 1 [7]) | IC50 (Prothrombin [8]) |
| --- | --- | --- | --- | --- | --- | --- | --- | --- | --- |
| COc1ccc2c(c1)N(CC(=O)N[C@H]1CCCN(C(=N)N)C1O)C(=O)[C@@H](NS(=O)(=O)Cc1ccccc1)CC2 (some centres not stated) | 28.9 nM | > 2500 nM | 64.3 nM | > 2500 nM | 2.2 | 40 nM |  |  |  |
| COc1ccc2c(c1)CC[C@H](NS(=O)(=O)CC1CCCCC1)C(=O)N2CC(=O)N[C@H]1CCCN(C(=N)N)C1O (some centres not stated) | 1.9 nM | > 2500 nM |  | 829 nM | 5.2 |  | 9.9 nM | 1.5 nM |  |
| N=C(N)N1CCC[C@H](NC(=O)CN2C(=O)C(NS(=O)(=O)Cc3ccccc3)Cc3ccccc32)C1O (some centres not stated) | > 2500 nM | > 2500 nM |  | 17.9 nM |  |  |  | 289 nM |  |
| N=C(N)N1CCC[C@H](NC(=O)CN2C(=O)[C@H](NS(=O)(=O)Cc3ccccc3)CCc3ccccc32)C1O (some centres not stated) | 49 nM | > 2500 nM |  | 192 nM |  |  |  | 135 nM |  |
| COc1ccc2c(c1)CC[C@H](NS(=O)(=O)c1ccc3ccccc3c1)C(=O)N2CC(=O)N[C@H]1CCCN(C(=N)N)C1O (some centres not stated) | 3.6 nM | > 2500 nM | 19.1 nM |  | 5.3 | 27 nM |  |  | 285 nM |
| COc1ccc2c(c1)CC[C@H](NS(=O)(=O)Cc1ccccc1)C(=O)N2CC(=O)N[C@H]1CCCN(C(=N)N)C1O (some centres not stated) | 7.2 nM | > 2500 nM | 34.9 nM | > 2500 nM | 4.8 | 110 nM |  |  |  |
| N=C(N)N1CCC[C@H](NC(=O)CN2C(=O)[C@@H](NS(=O)(=O)Cc3ccccc3)CCc3ccccc32)C1O (some centres not stated) | 7.3 nM | > 2500 nM | 17.1 nM | 178 nM | 2.3 |  |  | 26 nM |  |
| COc1cccc2c1CC[C@H](NS(=O)(=O)Cc1ccccc1)C(=O)N2CC(=O)N[C@H]1CCCN(C(=N)N)C1O (some centres not stated) | 8.6 nM | > 2500 nM | 26.7 nM | 235 nM | 3.1 | 77 nM |  |  |  |
| N=C(N)N1CCC[C@H](NC(=O)CN2CCCC[C@H](NS(=O)(=O)Cc3ccccc3)C2=O)C1O (some centres not stated) | 20.6 nM | > 2500 nM |  |  |  |  |  | 75 nM |  |
